# Reference: ChEMBL document CHEMBL3046125, “Design and synthesis of niflumic acid-based N-acylhydrazone derivatives as novel anti-inflammatory and analgesic agents” (2013)
# How the values were obtained:
# Format in all cases: functional
# Rattus norvegicus [1] = assay: Anti-inflammatory activity in Wistar Rattus norvegicus (rat) assessed as inhibition of carrageenan-induced paw edema at 10 mg/kg, ip measured after 3 hr; details: route intraperitoneal
# Rattus norvegicus [2] = assay: Anti-inflammatory activity in Wistar Rattus norvegicus (rat) assessed as inhibition of carrageenan-induced paw edema at 10 mg/kg, ip measured after 30 min; details: 0.5 h, route intraperitoneal
# Mus musculus = assay: Analgesic activity in NMRI Mus musculus (mouse) assessed as inhibition of acetic acid-induced abdominal writhing at 10 mg/kg administered 30 min prior to acetic acid injection; details: Abdomen
# Rattus norvegicus [3] = assay: Anti-inflammatory activity in Wistar Rattus norvegicus (rat) assessed as inhibition of carrageenan-induced paw edema at 10 mg/kg, ip measured after 1 hr; details: route intraperitoneal
# Rattus norvegicus [4] = assay: Anti-inflammatory activity in Wistar Rattus norvegicus (rat) assessed as inhibition of carrageenan-induced paw edema at 10 mg/kg, ip measured after 2 hr; details: route intraperitoneal
# Rattus norvegicus [5] = assay: Anti-inflammatory activity in Wistar Rattus norvegicus (rat) assessed as inhibition of carrageenan-induced paw edema at 10 mg/kg, ip measured after 4 hr; details: route intraperitoneal
Structure (SMILES),inhibition in vivo at 10 mg/kg (Rattus norvegicus [1]) [%],inhibition in vivo at 10 mg/kg (Rattus norvegicus [2]) [%],inhibition in vivo at 10 mg/kg (Mus musculus) [%],inhibition in vivo at 10 mg/kg (Rattus norvegicus [3]) [%],inhibition in vivo at 10 mg/kg (Rattus norvegicus [4]) [%],inhibition in vivo at 10 mg/kg (Rattus norvegicus [5]) [%]
O=C(N/N=C/c1cccnc1)c1cccnc1Nc1cccc(C(F)(F)F)c1,52.4,59.1,51.4,76.1,62.4,36
CNc1ncccc1C(=O)N/N=C/c1ccc(Cl)cc1,22.4,46.5,,54.7,54.1,18.2
COc1cc(/C=N/NC(=O)c2cccnc2Nc2cccc(C(F)(F)F)c2)cc(OC)c1OC,28.5,55.9,,54.4,40.6,28.6
COc1ccc(/C=N/NC(=O)c2cccnc2Nc2cccc(C(F)(F)F)c2)c(OC)c1,24.1,37.8,,55.7,44.7,19.8
O=C(N/N=C/c1cccc(F)c1)c1cccnc1Nc1cccc(C(F)(F)F)c1,37,58.2,,51.5,52.8,29.8
CNc1ncccc1C(=O)N/N=C/c1ccccc1,22.7,56.5,,67.6,47.2,14.8
O=C(N/N=C/c1ccc(O)cc1)c1cccnc1Nc1cccc(C(F)(F)F)c1,59.5,59.2,,70.5,68,61.6
O=C(N/N=C/c1cccc(O)c1)c1cccnc1Nc1cccc(C(F)(F)F)c1,49,67.5,,63.8,65.4,35.8
COc1cccc(/C=N/NC(=O)c2cccnc2Nc2cccc(C(F)(F)F)c2)c1,30.3,52.8,,58.8,49.7,14.9
CNc1ncccc1C(=O)N/N=C/c1ccncc1,55,63.2,90.6,80.4,60.4,15.5
O=C(N/N=C/c1ccc(O)c(O)c1)c1cccnc1Nc1cccc(C(F)(F)F)c1,38.2,51.4,,50.8,46.9,21.1
O=C(N/N=C/c1ccc(F)cc1)c1cccnc1Nc1cccc(C(F)(F)F)c1,41.3,33.9,,43.2,41.2,36.5
COc1ccc(/C=N/NC(=O)c2cccnc2Nc2cccc(C(F)(F)F)c2)cc1OC,44,60.1,80.7,70,49,52.9
O=C(N/N=C/c1ccccc1)c1cccnc1Nc1cccc(C(F)(F)F)c1,21.2,60.4,66.2,53.9,36.8,31
O=C(O)c1cccnc1Nc1cccc(C(F)(F)F)c1 [NIFLUMIC ACID],70.6,64.1,68.3,70.4,70.1,52
CNc1ncccc1C(=O)N/N=C/c1cccc(OC)c1,49.5,56.1,,64.6,51.5,42.2
CNc1ncccc1C(=O)N/N=C/c1cccnc1,27.7,66.3,,61.1,43.7,13.8
COc1ccc(/C=N/NC(=O)c2cccnc2Nc2cccc(C(F)(F)F)c2)cc1,26.5,50.4,97.4,59.4,42.4,14
CNc1ncccc1C(=O)N/N=C/c1cccc(Cl)c1,39.5,67.1,,68.6,61.7,40.4
CN(C)c1ccc(/C=N/NC(=O)c2cccnc2Nc2cccc(C(F)(F)F)c2)cc1,39.5,61.3,,63.5,51.4,28.2
O=C(N/N=C/c1cccc(Cl)c1)c1cccnc1Nc1cccc(C(F)(F)F)c1,55.2,77.8,61.9,76.7,63.5,40.4
O=C(N/N=C/c1ccncc1)c1cccnc1Nc1cccc(C(F)(F)F)c1,54.9,68.1,85.6,70.2,65.2,45.9
O=C(N/N=C/c1ccc(Cl)cc1)c1cccnc1Nc1cccc(C(F)(F)F)c1,48.5,52.4,,67.2,52.8,43.7
